In patent US20170296550A1, “ARYL SULTAM DERIVATIVES AS RORc MODULATORS” (Genentech, Inc., priority 2013, published 2017):

Biological target: T1, RORc (Homo sapiens, UniProt P51449)
T1 construct: host or cells: E. coli
T1 sequence (P51449 269-508 limits assumed): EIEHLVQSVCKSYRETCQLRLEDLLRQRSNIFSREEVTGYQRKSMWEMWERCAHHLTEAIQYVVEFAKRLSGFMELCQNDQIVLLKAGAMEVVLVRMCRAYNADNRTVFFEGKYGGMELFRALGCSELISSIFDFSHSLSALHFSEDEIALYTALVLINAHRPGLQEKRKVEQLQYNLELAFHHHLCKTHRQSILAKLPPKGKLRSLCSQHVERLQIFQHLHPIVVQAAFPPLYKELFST
Assay: In Vitro RORc Ligand Binding Assay (25-[3H]hydroxycholesterol radioligand, filter plate)
Conditions: RORc ligand binding domain 0.6 ug/mL; 6 nM 25-[3H]hydroxycholesterol; 3 h at 25° C.
Procedure: Example 68 In Vitro RORc Ligand Binding Assay
This assay was used to determine a compound's potency in inhibiting activity of RORc by determining, Kiapp, IC50, or percent inhibition values.
On day of the assay, 100 uL of 0.05% CHAPS (in deionized H2O) was added to all wells of the GFB Unifilter plate and allowed soak for 1 h. A wash buffer of 50 mM HEPES (pH 7.4), 150 mM NaCl, and 5 mM MgCl2 was prepared to wash the filter plate. To prepare an assay buffer, BSA was added to the wash buffer to reach 0.01% and DTT was added to reach 1 mM.
For IC50 mode, 10 mM compound stocks were serially diluted in DMSO with DMSO to give 20× required final concentration in DMSO (15 uL compound+30 uL DMSO). The 20× compound stocks were diluted in DMSO with Assay Buffer 4-fold to reach 5× the final test concentration in 25% DMSO (10 uL compound+30 uL Assay Buffer). Solutions were mixed by aspiration several times with a pipette set on 50 uL volume. For the assay, 10 uL of 5× compound stock solutions in 25% DMSO were added to the assay plate in duplicate.
For two point screening, 10 mM stock compound solutions were diluted in DMSO to obtain 200 uM (20× the high test concentration) and then diluted 10-fold further to reach 20 uM (20× the low test concentration). The 20× stocks were diluted 4-fold with Assay Buffer (10 uL compound+30 uL Assay Buffer) to reach 5× the test concentrations (50 uM and 5 uM) and 10 uL were added to two assay plates for the duplicate wells. With each concentration tested on 2 plates, each set of 80 compounds used 4 assay plates (1 uM and 10 uM, with n=2).
25-hydroxycholesterol (1 uM) was used to determine the level of NSB signal is prepared in DMSO as for compounds above, then diluted in Assay Buffer to give a final concentration of 5 uM. For 25-hydroxycholesterol in 25% DMSO/75% Assay Buffer; 10 uL per well was used for NSB samples. Wells for Total Binding and No Receptor sample determination contained 10 uL of 25% DMSO/75% Assay Buffer per well.
Radioligand (25-[^3H]hydroxycholesterol) Preparation
25-[^3H]hydroxycholesterol was dilute in Assay Buffer to obtain 15 nM and vortex to mix. Add 20 uL to all wells to reach 6 nM final in the assay.
Stock receptor solution was diluted in assay buffer to obtain 1.5 ug/mL in Assay Buffer. 20 uL was added to all wells. For No R samples, 20 uL Assay Buffer was substituted for receptor solution.
Assay plates were 96-well polypropylene V-bottom plates. 10 uL of 5× compound in 25% DMSO/75% Assay Buffer was added to Test wells. 10 uL of 25% DMSO/75% Assay Buffer was added to Total Binding or No Receptor wells. 10 uL of 5 uM 25-hydroxycholesterol in 25% DMSO/75% Assay Buffer was added to NSB wells. 20 uL of 15 nM 25-[^3H]hydroxycholesterol prepared in Assay Buffer was added to all wells. 20 uL of 1.5 ug/mL RORc receptor was added to wells (or […] Assay Buffer to No R wells). Following addition to the wells, the plates were incubated 3 h at 25° C.
Using a Packard Filtermate Harvester, the filter plate were washed 4 times following transfer of the incubated samples. Plates were dry-filtered completely (2 h at 50° C. or overnight at room temperature). 50 uL Microscint 0 was added to all wells and read on Topcount protocol Inverted.
Final concentrations were as follows: 50 mM HEPES buffer (pH 7.4); 150 mM NaCl; 1 mM DTT; 5 mM MgCl2; 0.01% BSA; 5% DMSO; 0.6 ug/mL RORc receptor; 6 nM 25-[^3H]hydroxycholesterol. For NSB wells, 1 uM 25-hydroxycholesterol was also present.

SMILES | IC50
C[C@H]1CCC(c2ccccc2)S(=O)(=O)N1Cc1ccc(-c2cccc(S(C)(=O)=O)c2)cc1F (stereo partly drawn) [Example 23, (3S)-2-(3-Fluoro-3′-methanesulfonyl-biphenyl-4-ylmethyl)-3-methyl-6-phenyl-[1,2]thiazinane 1,1-dioxide] | 0.212 µM
C[C@H]1CCC(c2ccccc2)S(=O)(=O)N1Cc1ccc(-c2ccc(C#N)nc2)cc1F (stereo partly drawn) [Example 24, 5-[3-Fluoro-4-((3S)-3-methyl-1,1-dioxo-6-phenyl-[1,2]thiazinan-2-ylmethyl)-phenyl]-pyridine-2-carbonitrilc] | 0.11 µM
CC(=O)Nc1ccc(-c2ccc(CN3[C@@H](C)CCC(c4ccccc4)S3(=O)=O)c(F)c2)cn1 (stereo partly drawn) [Example 26, N-{5-[3-Fluoro-4-((3S)-3-methyl-1,1-dioxo-6-phenyl-[1,2]thiazinan-2-ylmethyl)-phcnyl]-pyridin-2-yl}-acetamide] | 1.91 µM
C[C@H]1CCC(c2ccccc2)S(=O)(=O)N1Cc1ccc(-c2ccc(C#N)cc2)cc1F (stereo partly drawn) [Example 27, 3′-Fluoro-4′-((3S)-3-methyl-1,1-dioxo-6-phenyl-[1,2]thiazinan-2-ylmethyl)-biphenyl-4-carbonitrile] | 0.102 µM
C[C@H]1CCC(c2ccccc2)S(=O)(=O)N1Cc1ccc(-c2ccc(C(N)=O)cc2)cc1F (stereo partly drawn) [Example 28, 3′-Fluoro-4′-((3S)-3-methyl-1,1-dioxo-6-phenyl-[1,2]thiazinan-2-ylmethyl)-biphenyl-4-carboxylic acid amide] | 0.037 µM
C[C@H]1CCC(c2ccccc2)S(=O)(=O)N1Cc1ccc(-c2cnn(C)c2)cc1F (stereo partly drawn) [Example 29, (3S)-2-[2-Fluoro-4-(1-methyl-1H-pyrazol-4-yl)-benzyl]-3-methyl-6-phenyl-[1,2]thiazinane 1,1-dioxide] | 0.727 µM
C[C@H]1CCC(c2ccccc2)S(=O)(=O)N1Cc1ccc(-c2ccc(S(C)(=O)=O)cc2)cc1F (stereo partly drawn) [Example 31, (3S)-2-(3-Fluoro-4′-methanesulfonyl-biphenyl-4-ylmethyl)-3-methyl-6-phenyl-[1,2]thiazinane 1,1-dioxide] | 0.028 µM
C[C@H]1CCC(c2ccccc2)S(=O)(=O)N1Cc1ccc(-c2ccccc2)cc1F (stereo partly drawn) [Example 32, (3S)-2-(3-Fluoro-biphenyl-4-ylmethyl)-3-methyl-6-phenyl-[1,2]thiazinane 1,1-dioxide] | 0.161 µM
C[C@H]1CCC(c2ccccc2)S(=O)(=O)N1Cc1ccc(-c2ccc(NS(C)(=O)=O)cc2)cc1F (stereo partly drawn) [Example 33, N-[3′-Fluoro-4′-((3S)-3-methyl-1,1-dioxo-6-phenyl-[1,2]thiazinan-2-ylmethyl)-biphenyl-4-yl]-methanesulfonamide] | 0.044 µM
C[C@H]1CCC(c2ccccc2)S(=O)(=O)N1Cc1ccc(-c2ccncc2)cc1F (stereo partly drawn) [Example 34, (3S)-2-(2-Fluoro-4-pyridin-4-yl-benzyl)-3-methyl-6-phenyl-[1,2]thiazinane 1,1-dioxide] | 0.463 µM
Cc1noc(C)c1-c1ccc(CN2[C@@H](C)CCC(c3ccccc3)S2(=O)=O)c(F)c1 (stereo partly drawn) [Example 35, (3S)-2-[4-(3,5-Dimethyl-isoxazol-4-yl)-2-fluoro-benzyl]-3-methyl-6-phenyl-[1,2]thiazinane 1,1-dioxide] | 0.534 µM
CNC(=O)c1ccc(-c2ccc(CN3[C@@H](C)CCC(c4ccccc4)S3(=O)=O)c(F)c2)cn1 (stereo partly drawn) [Example 36, 5-[3-Fluoro-4-((3S)-3-methyl-1,1-dioxo-6-phenyl-[1,2]thiazinan-2-ylmethyl)-phenyl]-pyridine-2-carboxylic acid methylamide] | 1.6 µM
C[C@H]1CCC(c2ccccc2)S(=O)(=O)N1Cc1ccc(-c2ccc(S(C)(=O)=O)cn2)cc1F (stereo partly drawn) [Example 38, (3S)-2-[2-Fluoro-4-(5-methanesulfonyl-pyridin-2-yl)-benzyl]-3-methyl-6-phenyl-[1,2]thiazinane 1,1-dioxide] | 0.087 µM
C[C@H]1CCC(c2ccccc2)S(=O)(=O)N1Cc1ccc(-c2ccc(S(C)(=O)=O)nc2)cc1F (stereo partly drawn) [Example 39, (3S)-2-[2-Fluoro-4-(6-methanesulfonyl-pyridin-3-yl)-benzyl]-3-methyl-6-phenyl-[1,2]thiazinanc 1,1-dioxide] | 0.151 µM
C[C@H]1CCC(c2ccccc2)S(=O)(=O)N1Cc1ccc(-c2cnc(S(C)(=O)=O)nc2)cc1F (stereo partly drawn) [Example 40, (3S)-2-[2-Fluoro-4-(2-mcthanesulfonyl-pyrimidin-5-yl)-benzyl]-3-methyl-6-phenyl-[1,2]thiazinane 1,1-dioxide] | 0.989 µM
Cc1cccnc1COc1ccc(CN2[C@@H](C)CCC(c3ccccc3)S2(=O)=O)cc1 (stereo partly drawn) [Example 46, (3S)-3-Methyl-2-[4-(3-methyl-pyridin-2-ylmethoxy)-benzyl]-6-phenyl-[1,2]thiazinane 1,1-dioxide] | 0.153 µM
Cc1cnccc1COc1ccc(CN2[C@@H](C)CCC(c3ccccc3)S2(=O)=O)cc1 (stereo partly drawn) [Example 47, (3S)-3-Methyl-2-[4-(3-methyl-pyridin-4-ylmethoxy)-benzyl]-6-phenyl-[1,2]thiazinane 1,1-dioxide] | 0.205 µM
C[C@H]1CCC(c2ccccc2)S(=O)(=O)N1Cc1ccc(OCc2ncccn2)cc1 (stereo partly drawn) [Example 48, (3S)-3-Methyl-6-phenyl-2-[4-(pyrimidin-2-ylmethoxy)-benzyl]-[1,2]thiazinane 1,1-dioxide] | 1.63 µM
C[C@H]1CCC(c2ccccc2)S(=O)(=O)N1Cc1ccc(OCc2cncn2C)cc1 (stereo partly drawn) [Example 49, (3S)-3-Methyl-2-[4-(3-methyl-3H-imidazol-4-ylmethoxy)-benzyl]-6-phenyl-[1,2]thiazinane 1,1-dioxide] | 0.295 µM
Cc1cnc(COc2ccc(CN3[C@@H](C)CCC(c4ccccc4)S3(=O)=O)cc2)nc1 (stereo partly drawn) [Example 51, (3S)-3-Methyl-2-[4-(5-methyl-pyrimidin-2-ylmethoxy)-benzyl]-6-phenyl-[1,2]thiazinane 1,1-dioxide] | 1.18 µM
Cc1ncccc1COc1ccc(CN2[C@@H](C)CCC(c3ccccc3)S2(=O)=O)cc1 (stereo partly drawn) [Example 52, (3S)-3-Methyl-2-[4-(2-methyl-pyridin-3-ylmethoxy)-benzyl)-6-phenyl-[1,2]thiazinane 1,1-dioxide] | 0.057 µM
Cc1oncc1COc1ccc(CN2[C@@H](C)CCC(c3ccccc3)S2(=O)=O)cc1 (stereo partly drawn) [Example 53, (3S)-3-Methyl-2-[4-(5-methyl-isoxazol-4-ylmethoxy)-benzyl]-6-phenyl-[1,2]thiazinane 1,1-dioxide] | 0.208 µM
Cc1cc(COc2ccc(CN3[C@@H](C)CCC(c4ccccc4)S3(=O)=O)cc2)cc(C)n1 (stereo partly drawn) [Example 54, (3S)-2-[4-(2,6-Dimethyl-pyridin-4-ylmethoxy)-benzyl]-3-methyl-6-phenyl-[1,2]thiazinane 1,1-dioxide] | 0.295 µM
Cc1cc(COc2ccc(CN3[C@@H](C)CCC(c4ccccc4)S3(=O)=O)cc2)n(C)n1 (stereo partly drawn) [Example 55, (3S)-2-[4-(2,5-Dimethyl-2H-pyrazol-3-ylmethoxy)-benzyl]-3-methyl-6-phenyl-[1,2]thiazinane 1,1-dioxide] | 0.387 µM
C[C@H]1CCC(c2ccccc2)S(=O)(=O)N1Cc1ccc(OCCn2ccnc2)cc1 (stereo partly drawn) [Example 56, (3S)-2-[4-(2-Imidazol-1-yl-ethoxy)-benzyl]-3-methyl-6-phenyl-[1,2]thiazinane 1,1-dioxide] | 0.316 µM
